Measurements as given in patent US9000027B2, “Chk1 suppresses a caspase-2 apoptotic response to DNA damage that bypasses p53, bcl-2 and caspase-3” (Dana-Farber Cancer Institute, Inc., priority 2008, dated 2015).
Entries after “also recorded” stand apart in the source; their conditions may differ.

How the values were obtained:
[1] = system: HeLa cells; test: Clonogenic survival assay after IR; type: cell-based, human; details: Gö6976 500 nM from 24 hbIR
Experimental: Clonogenic assays were performed as described (Franken et al., 2006). Briefly, the cells were plated in 6-cm dishes, treated with Gö6976 followed by IR and cultured for 2 weeks. The medium was then removed, and the cells were rinsed by PBS and incubated with a mixture of 6.0% glutaraldehyde and 0.5% crystal violet (Sigma-Aldrich, St Louis, Mo., USA) for 30 min at room temperature. The dishes were washed with water, and colonies consisting of at least 50 cells were counted.

[2] = system: p53^+/+ embryos; test: Drug toxicity: AO reactivity and development of inhibitor-treated, non-irradiated p53+/+ embryos; type: in vivo, zebrafish; details: 0 Gy
Description: Chk1 inhibitors hold considerable promise in cancer therapy, as they are expected to synergize with genotoxic agents to kill tumor cells lacking functional p53, without affecting normal cells (Kawabe, 2004; Zhou and Bartek, 2004). […] Gö6976 has not been tested in vivo in a vertebrate model system. We therefore evaluated it as well as specific Chk2 and ATM inhibitors in the zebrafish system. Drug toxicity was monitored by scoring the AO reactivity of inhibitor-treated, but non-irradiated, p53^+/+ embryos (left column in FIG. 8A). Unless otherwise indicated, the inhibitors were applied at 18 hpf (that is, immediately before IR) for a total of 6 hours.
(§1) Immediately before IR, 18-hpf embryos were dechorionated and transferred to fresh egg water containing 1% DMSO, with or without the following inhibitors at indicated final concentrations: KU55933 (10 μM; Sigma) (Hickson et al., 2004); Chk2 Inhibitor II (10 μM; Calbiochem) (Arienti et al., 2005); Gö6976 (1 μM; Calbiochem) (Kohn et al., 2003). Unless stated otherwise, embryos were exposed to the inhibitors for 6 hr, transferred to fresh egg water, rinsed five times for 5 min, and labeled with AO. For experiments with Tg(rag2:EGFP-bcl-2) larvae, larvae were incubated in the inhibitor solution at 4 dpf, irradiated at 5 dpf, rinsed at 6 dpf, incubated in fresh inhibitor for an additional 72 hr, and mounted live at 9 dpf for fluorescence microscopic analysis of EGFP expression.

[3] = system: HeLa cells; test: Cell viability assay (CellTiter-Glo) after IR; type: cell-based, human; details: 10 Gy, 72 hpIR
Experimental: For the cell viability assay, Tg(BCL2)^− and Tg(BCL2)^+ H218 cells were seeded into black 96-well plates (BD Bioscience) at a density of 1000 cells per well on day 1. 24-well sets were treated with DMSO or Gö6976 (1 μM), and plates were exposed to 0 or 10 Gy IR on day 2. After 72 hr, cellular viability was measured with the CellTiter-Glo Luminescent Cell Viability Assay kit (Promega) according to the manufacturer's instructions. Cellular viability for each well was calculated as a percentage of the mean viability of DMSO-treated, non-irradiated cells. The mean cellular viability and SEM were calculated and plotted with GraphPad Prism version 3 (GraphPad Software, San Diego Calif., USA). Each viability experiment was performed twice.

[4] = system: caspase-2; test: Western blot of caspase-2 cleavage in human cancer cells; type: cell-based
Experimental: (§2) Protein extract (5-60 μg) was added to 4× gel loading buffer and 10× denaturing solution (Invitrogen) in appropriate proportions, and samples were incubated at 70° C. for 10 min. Samples were run at 200V for 1 hr on a 4-12% Bis-tris gradient gel (Invitrogen). After electrophoresis, samples were transferred for 1.5 hr (350 mA) to a Nitrocellulose membrane (Millipore) using a submerged transfer apparatus (Bio-Rad). Membranes were then blocked with 5% milk in Tris-buffered saline with 0.1% tween (TBST) and probed overnight at 4° C. with the following antibodies: anti-zebrafish Chk1 (diluted 1:200), anti-zebrafish Chk2 (1:200), anti-P-Cdc2 (1:1000), anti-actin (1:2000), anti-human ATR (1:500) and Stressgen anti-human-caspase-3 (1:500) for zebrafish immunoblots; and anti-caspase-2 (1:200), Upstate anti-caspase-3 (1:500), anti-P-ATM (1:500), anti-ATM (1:500), Santa Cruz anti-human Chk1 (1:1000), Santa Cruz anti-human Chk2 (1:1000), anti-P-Chk1 (1:500), anti-P-Chk2 (1:500), anti-P-H2A.X (1:2000), anti-P-cdc25C (1:1000), anti-P-HSP27 (1:1000), anti-HSP27 (1:1000), anti-P-Cdc2 (1:1000), anti-p53 (1:1000) and anti-GAPDH (1:5000) for immunoblots of human tumor cell lysates. Detailed references for all primary antibodies can be found in the ‘Antibodies’ section elsewhere herein.

[5] = system: ATM; test: Western blot of ATM activity (Chk2 phosphorylation at Thr68) in HeLa cells; type: cell-based, human; details: 10 Gy IR+Gö6976 1 μM
Experimental: as §2

[6] = system: Tg(rag2:EGFP-bcl-2) larvae; test: T-cell radioresistance in Tg(rag2:EGFP-bcl-2) larvae; type: in vivo, zebrafish
Description: To test this notion in vivo, we exploited a zebrafish transgenic line expressing a stable EGFP-bcl-2 fusion transgene under control of the rag2 promoter (Langenau et al., 2005). Such Tg(rag2: EGFP-bcl-2) larvae are characterized by highly radioresistant T- and B-cells at 9 dpf. […] Together with our human cell culture studies, our in vivo analysis of Gö6976 in zebrafish raises the remarkable possibility that tumors disrupting p53 or its attendant downstream pathway—in other words, most human cancers—will respond favorably to Chk1 inhibitors.
as §1

[7] = target: MK-2 (Homo sapiens, UniProt P49137); test: Western blot of MK-2 activity (Hsp-27 Ser82 phosphorylation) in irradiated HeLa cells; type: cell-based; parameters: endogenous in cells; host or cells: HeLa
Chain of MK-2 (P49137 whole entry): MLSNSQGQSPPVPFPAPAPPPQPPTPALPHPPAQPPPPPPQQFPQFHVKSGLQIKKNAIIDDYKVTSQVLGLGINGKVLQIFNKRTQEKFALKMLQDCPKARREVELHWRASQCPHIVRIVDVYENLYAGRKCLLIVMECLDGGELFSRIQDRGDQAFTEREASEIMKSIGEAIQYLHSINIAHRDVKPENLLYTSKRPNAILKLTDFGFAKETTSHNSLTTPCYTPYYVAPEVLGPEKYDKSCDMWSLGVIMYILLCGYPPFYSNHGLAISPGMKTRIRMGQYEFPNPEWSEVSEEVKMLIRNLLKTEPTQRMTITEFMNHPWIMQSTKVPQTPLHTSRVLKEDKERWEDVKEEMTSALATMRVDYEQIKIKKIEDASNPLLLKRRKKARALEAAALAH
Experimental: as §2

Cn1c2ccccc2c2c3c(c4c5ccccc5n(CCC#N)c4c21)CNC3=O [Gö6976]
clonogenic radiosensitization ([1]; 2 Gy): inability of Gö6976 to significantly radiosensitize the cells
reduction in number of colonies ([1]; 3.2 Gy, colonies counted 14 dpIR): 50%
long-term development of non-irradiated treated embryos ([2]; p53+/+): developed into normal adults without overt signs of spontaneous tumorigenesis or other pathologies
toxicity of the dose used (AO reactivity of non-irradiated embryos) ([2]; Gö6976 1 μM, KU55933 10 μM, Chk2 Inhibitor II 10 μM): non-toxic
radiosensitizing effect (cell killing) ([3]; Gö6976 1 μM): ~50%
radiosensitization of HeLa cells ([3]; regardless of BCL2 transgene): ~2 fold
caspase-2 activation ([4]; HeLa, 2 Gy, Gö6976 500 nM for 24 hbIR): synergistic activation of caspase-2 was observed
caspase-2 cleavage ([4]; HeLa, 2 or 3.2 Gy, Gö6976 1 μM applied 1 hbIR): no detectable cleavage
caspase-2 activation ([4]; HeLa, 3.2 Gy, Gö6976 1 μM applied 6 hbIR): as efficiently as the standard 10 Gy protocol
caspase-2 cleavage ([4]; HeLa, 10 Gy, 24 hpIR, Gö6976 1 μM applied 1 hbIR): readily apparent; also recorded: strong caspase-2 cleavage
caspase-2 cleavage ([4]; TP53+/+ HCT116 cells, IR+Gö6976): inability to cleave caspase-2
caspase-2 cleavage versus single- or no-treatment controls ([4]; TP53 null or mutant lines (TP53-/- HCT116, SAOS2, MDA-MB-435, LN-428), 10 Gy IR+Gö6976): increases in caspase-2 cleavage
phosphorylated Chk2 at Thr68 (readout for ATM activity) [5]: synergistic increases
larvae with T-cell radioresistance suppressed ([6]; 15 Gy IR at 5 dpf, Gö6976 for 5 days from 4 dpf, scored 9 dpf, n=26, DMSO: none (n=28)): 58%
adverse effects of systemic treatment ([6]; larvae, 5 days exposure): without any apparent adverse effects
MK-2 activity ([7]; Gö6976 1 μM): an increase in MK-2 activity
HSP-27 phosphorylation at serine 82 (MK-2 site) ([7]; Gö6976, increasing concentrations, 10 Gy, 24 hpIR): did not block HSP-27 phosphorylation at serine 82
